The text below walks through data of US20100323031A1, “Synergistic combination to enhance blood glucose and insulin metabolism” (GLYKON TECHNOLOGIES GROUP, LLC, priority 2009, published 2010).

In assay [1] the test system is streptozotocin (STZ)-induced diabetes. Put plainly: Pilot animal streptozotocin-induced diabetes trial, blood glucose by glucometer. Type of assay: in vivo, male Wistar albino rats. To be noted: STD Herbal 250 mg/kg. As for the experimental part: The synergism of the formula is reflected in findings in an animal trial of induced diabetes treated with Metformin. To produce streptozotocin (STZ)-induced diabetes in experimental rats, male Wistar albino rats of 12 weeks age were allowed to fast 24 hrs prior to injection with freshly prepared STZ in citrate buffer […] (45 mg/kg, i.p). […] However, an additional arm of similarly-induced diabetic rats that were older and much sicker was added to test the herbal mixture prepared to produce the relative percentages of each ingredient as in Example 1 given above, here termed “STD Herbal.” After an overnight fast, the samples suspended in 5% gum acacia were fed by gastric intubations with a syringe. […] The blood glucose level was determined by using an electronic glucometer (Accu Check, Roche Diagnostic) and the results are tabulated in table 4. n=6 animals in each group. Parenthesis value indicate percentage reduction of blood sugar level; *P<0.01 compared with initial level of blood glucose (0 h) in the respective group. Data were analyzed by repeated measure ANOVA followed by Dunnett test.

The next assay concerns Human - sedentary. Particulars: 3 grams HCA as the free acid equivalent; cited from earlier work.
In another assay the test system is Male Wistar rats. To be noted: equivalent to 2,170 mg HCA free acid; cited from earlier work.
Assay [2] has as its system Human morbidly obese diabetics. Particulars: published literature, U.S. Pat. No. 6,207,714; cited from earlier work.
Assay [3] concerns Aged diabetic obese Zucker rat. To be noted: human-equivalent dose, 6:1 rat to human multiplier; cited from earlier work.

Marks after values point to notes of the source that are not given here.

As for `CN(C)C(=N)N=C(N)N` [Metformin], the “Blood glucose level, Initial (0 hr)” value in assay [1] (0 hr, before treatment, overnight fast, Metformin 150 mg/kg by gastric intubation, n=6, in mg/dL (unit assumed)) was found to be 329.2 ± 5.25. For the same compound, the “percentage reduction of blood sugar level, +1 hr” value in assay [1] (+1 hr vs initial (0 hr), Metformin 150 mg/kg) is recorded as “(17.49) %”. Further, the “Blood glucose level, Treatment +1 hr” value in assay [1] (+1 hr, Metformin 150 mg/kg by gastric intubation, n=6, in mg/dL (unit assumed)) is given as 271.6 ± 4.0. Moreover, the “percentage reduction of blood sugar level, +2 hr” value in assay [1] (+2 hr vs initial (0 hr), Metformin 150 mg/kg) is on record as “(34.87) %”. Moreover, the “Blood glucose level, Treatment +2 hr” value in assay [1] (+2 hr, Metformin 150 mg/kg by gastric intubation, n=6, in mg/dL (unit assumed)) is 214.4 ± 3.17*. For the same compound, in assay [1] (+3 hr vs initial (0 hr), Metformin 150 mg/kg), the “percentage reduction of blood sugar level, +3 hr” value was “(46.38) %”. In assay [1] (+3 hr, Metformin 150 mg/kg by gastric intubation, n=6, in mg/dL (unit assumed)), the “Blood glucose level, Treatment +3 hr” value is on record as 176 ± 6.7*. In addition, in assay [1] (+4 hr vs initial (0 hr), Metformin 150 mg/kg), the “percentage reduction of blood sugar level, +4 hr” value was “(53.52) %”. In assay [1] (+4 hr, Metformin 150 mg/kg by gastric intubation, n=6, in mg/dL (unit assumed)), the “Blood glucose level, Treatment +4 hr” value was 153 ± 3.31*.
Turning to `O=C([O-])C[C@@](O)(C(=O)[O-])[C@H](O)C(=O)[O-].O=C([O-])C[C@@](O)(C(=O)[O-])[C@H](O)C(=O)[O-].[Ca+2].[Ca+2].[Ca+2]` [calcium salt, calcium salt of (−)-hydroxycitric acid], the “efficacy in reducing blood glucose” value in the assay on Human - sedentary is recorded as “ineffective”.
Consider “potassium salt of (−)-hydroxycitric acid”, for which the “efficacy in reducing blood glucose at smaller dosage” value in the assay with Male Wistar rats is on record as “ineffective”. Besides, in assay [2], the “lowest dose of HCA as free acid equivalent found efficacious in reducing blood glucose” value is listed as 3 grams.
“potassium-calcium salt of (−)-hydroxycitric acid”: in assay [3], the “lowest stand-alone dose shown to be effective, as HCA free acid equivalent” value is recorded as 3,276 mg.
